Data set [1] concerns the target Epidermal growth factor receptor (Homo sapiens, UniProt P00533).
The target in data set [2] is T1, Receptor tyrosine-protein kinase erbB-2 (Homo sapiens, UniProt P04626). Description: Inhibition of erB2 autophosphorylation in clone 24 cells. It is filed as cell-based.
The target of data set [3] is T1, Receptor tyrosine-protein kinase erbB-2. The data set is described as follows: Inhibition of erbB2.
Data set [4] is described as follows: Half life in rat at 0.4 mg/kg, iv and 1 mg/kg, po. The class given is ADME, organism-based. The note with it: in vivo.
The test system of another data set is P-gp. Description: Apparent permeability from apical to basolateral side of the dog MDCK cells expressing P-gp transporter. The note with it: MDCK-MDR1. The class given is ADME, cell-based, Canis lupus familiaris.
The nature of data set [5]: Volume of distribution at steady state in rat at 0.4 mg/kg, iv and 1 mg/kg, po. The class given is ADME, organism-based. The note with it: in vivo, read-out: Vdss.
Data set [6] is described as follows: Volume of distribution at steady state in male and female Beagle dog at 0.2 mg/kg, iv and 0.4 mg/kg, po. The class given is ADME, organism-based, Canis lupus familiaris. The note with it: both, in vivo, read-out: Vdss.
Data set [7] is described as follows: Antiproliferative activity against human BT474C cells. The class given is functional, cell-based.
Data set [8] can be described thus: Protein binding in rat plasma assessed as unbound ligand at 0.4 mg/kg, iv and 1 mg/kg, po. The class given is ADME, organism-based.
The nature of data set [9]: Half life in male and female Beagle dog at 0.2 mg/kg, iv and 0.4 mg/kg, po. The note with it: both, in vivo. It is filed as ADME, organism-based, Canis lupus familiaris.
A short description of data set [10]: Clearance in rat at 0.4 mg/kg, iv and 1 mg/kg, po. It is filed as ADME, organism-based. As to conditions: in vivo.
A further data set has as its system KB. Description: Antiproliferative activity against EGF-induced human KB cells. It is filed as functional, cell-based.
Data set [11] is described as follows: Oral bioavailability in male and female Beagle dog at 0.4 mg/kg. The class given is ADME, organism-based, Canis lupus familiaris. As to conditions: both, in vivo.
Data set [12] in a line: Oral bioavailability in rat at 1 mg/kg. It is filed as ADME, organism-based. The note with it: in vivo.
The nature of data set [13]: Protein binding in Beagle dog plasma assessed as unbound ligand at 0.2 mg/kg, iv and 0.4 mg/kg, po. The class given is ADME, organism-based, Canis lupus familiaris. As to conditions: read-out: PPB.
Data set [14] is described as follows: Clearance in male and female Beagle dog at 0.2 mg/kg, iv and 0.4 mg/kg, po. It is filed as ADME, organism-based, Canis lupus familiaris. As to conditions: both, in vivo.

Molecules are shown by their SMILES. Where only a bound is given, the exact number is not on record here.

As a reminder, the IC50 is the concentration that inhibits the measured activity by half. A lower IC50 goes with greater potency in that assay. What is called half-life is the time in which the quantity being followed falls by half. The Papp A→B is how fast a substance crosses the layer from the apical side. For orientation: bioavailability means dose-corrected exposure relative to a reference, in per cent. Higher therefore signals much systemic uptake.

T1 sequence (P04626 whole entry): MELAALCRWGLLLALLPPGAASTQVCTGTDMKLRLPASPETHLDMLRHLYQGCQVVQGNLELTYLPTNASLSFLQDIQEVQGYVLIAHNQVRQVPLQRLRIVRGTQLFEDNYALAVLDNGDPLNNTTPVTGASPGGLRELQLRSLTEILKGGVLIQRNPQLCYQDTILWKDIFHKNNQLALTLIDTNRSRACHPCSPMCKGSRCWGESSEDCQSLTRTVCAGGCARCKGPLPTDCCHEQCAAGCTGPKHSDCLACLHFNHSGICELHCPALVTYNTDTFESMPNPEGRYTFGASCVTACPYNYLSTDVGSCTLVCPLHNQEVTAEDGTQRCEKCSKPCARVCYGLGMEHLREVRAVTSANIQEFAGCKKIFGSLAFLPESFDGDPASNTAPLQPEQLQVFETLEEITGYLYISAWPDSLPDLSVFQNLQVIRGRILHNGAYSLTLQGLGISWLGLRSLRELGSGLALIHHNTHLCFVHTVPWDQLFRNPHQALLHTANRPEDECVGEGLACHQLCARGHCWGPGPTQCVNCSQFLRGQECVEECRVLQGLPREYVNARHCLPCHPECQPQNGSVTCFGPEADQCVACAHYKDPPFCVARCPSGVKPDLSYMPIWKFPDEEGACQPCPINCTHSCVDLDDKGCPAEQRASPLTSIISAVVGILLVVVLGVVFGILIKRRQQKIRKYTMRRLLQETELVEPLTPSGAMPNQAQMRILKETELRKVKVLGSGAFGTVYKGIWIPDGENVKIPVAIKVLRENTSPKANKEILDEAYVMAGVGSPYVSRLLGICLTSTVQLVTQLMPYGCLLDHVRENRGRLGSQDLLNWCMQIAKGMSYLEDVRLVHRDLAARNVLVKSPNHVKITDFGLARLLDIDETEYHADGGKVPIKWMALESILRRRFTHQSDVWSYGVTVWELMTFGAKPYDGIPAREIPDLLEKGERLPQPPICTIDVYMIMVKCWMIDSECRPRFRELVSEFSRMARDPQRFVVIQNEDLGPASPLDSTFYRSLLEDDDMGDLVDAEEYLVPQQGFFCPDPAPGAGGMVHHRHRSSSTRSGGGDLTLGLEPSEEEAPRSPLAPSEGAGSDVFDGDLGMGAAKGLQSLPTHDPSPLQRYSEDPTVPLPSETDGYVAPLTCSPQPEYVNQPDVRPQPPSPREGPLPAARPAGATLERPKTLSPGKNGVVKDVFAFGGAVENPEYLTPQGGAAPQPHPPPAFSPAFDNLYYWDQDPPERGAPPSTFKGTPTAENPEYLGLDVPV
Epidermal growth factor receptor, sequence (P00533 whole entry): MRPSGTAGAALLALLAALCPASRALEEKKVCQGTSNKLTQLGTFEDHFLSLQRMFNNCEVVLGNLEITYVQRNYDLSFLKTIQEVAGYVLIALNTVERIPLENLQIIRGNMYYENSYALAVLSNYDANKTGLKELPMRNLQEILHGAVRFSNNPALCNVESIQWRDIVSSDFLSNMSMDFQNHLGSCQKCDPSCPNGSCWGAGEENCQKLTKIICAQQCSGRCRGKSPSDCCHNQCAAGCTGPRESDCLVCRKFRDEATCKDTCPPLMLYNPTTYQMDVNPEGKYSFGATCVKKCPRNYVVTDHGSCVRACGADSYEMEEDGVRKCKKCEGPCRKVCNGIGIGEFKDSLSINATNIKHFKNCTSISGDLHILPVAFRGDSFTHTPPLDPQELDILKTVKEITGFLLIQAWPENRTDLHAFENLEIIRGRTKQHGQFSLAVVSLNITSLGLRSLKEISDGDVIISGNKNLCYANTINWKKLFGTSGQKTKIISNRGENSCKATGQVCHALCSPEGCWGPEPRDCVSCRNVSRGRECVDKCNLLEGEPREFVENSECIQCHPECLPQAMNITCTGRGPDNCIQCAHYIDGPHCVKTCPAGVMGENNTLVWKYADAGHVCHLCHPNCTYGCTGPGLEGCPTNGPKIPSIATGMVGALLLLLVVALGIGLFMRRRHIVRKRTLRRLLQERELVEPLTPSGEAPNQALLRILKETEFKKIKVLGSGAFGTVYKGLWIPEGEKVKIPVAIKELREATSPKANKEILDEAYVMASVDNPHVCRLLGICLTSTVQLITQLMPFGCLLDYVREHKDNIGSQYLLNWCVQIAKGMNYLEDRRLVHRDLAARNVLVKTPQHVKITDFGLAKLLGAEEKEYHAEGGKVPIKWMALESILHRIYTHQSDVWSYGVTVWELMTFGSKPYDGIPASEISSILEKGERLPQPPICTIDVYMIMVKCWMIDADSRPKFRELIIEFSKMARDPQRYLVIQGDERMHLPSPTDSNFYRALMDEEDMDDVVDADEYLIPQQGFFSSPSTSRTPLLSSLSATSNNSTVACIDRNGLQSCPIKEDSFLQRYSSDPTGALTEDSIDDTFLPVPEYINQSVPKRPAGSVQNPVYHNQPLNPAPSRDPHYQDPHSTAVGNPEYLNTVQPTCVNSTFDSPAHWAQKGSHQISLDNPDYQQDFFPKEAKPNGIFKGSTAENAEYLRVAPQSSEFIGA

As to `Cc1ccc(Oc2ccc(Nc3ncnc4[nH]nc(OCCN5CCC(O)CC5)c34)cc2Cl)cn1`, the IC50 in data set [1] was 7 nM; in [2], 184 nM; in [3], less than 1 nM.
Turning to `Cc1ccc(Oc2ccc(Nc3ncnc4[nH]nc(OCCN5CCC(O)CC5)c34)cc2C)cn1`, the IC50 in data set [2] was 415 nM; in data set [3] it was 11 nM.
`COC1CCN(CCOc2n[nH]c3ncnc(Nc4ccc(OCc5ccccn5)c(Cl)c4)c23)CC1`: the IC50 was 28 nM in data set [1], 82 nM in [2] and 4 nM in data set [3].
`CN1CCN(CCOc2n[nH]c3ncnc(Nc4ccc(OCc5ccccn5)c(Cl)c4)c23)CC1`: the results for the half-life in [4] and in data set [9] were 1.4 h and 2.4 h, respectively. Further, the Papp A→B in the data set with P-gp amounted to 9.5 ×10⁻⁶ cm/s. Moreover, the IC50 was 5 nM in data set [1]; 17 nM in data set [7]; 166 nM in [2]; 220 nM in the data set with KB; 1 nM in data set [3]. Moreover, the Vd in [5] is 4.5 L/kg; in data set [6], 9 L/kg. Moreover, the fraction unbound in data set [8] was found to be 0.1; in data set [13], 0.21. For the same molecule, the clearance was 41 mL/min/kg in data set [10] and 46 mL/min/kg in [14]. In addition, the results for the bioavailability in data set [11] and in data set [12] were 30% and 23%, respectively.
`OC1CCN(CCCOc2n[nH]c3ncnc(Nc4ccc(OCc5ccccn5)c(Cl)c4)c23)CC1`: half-maximal inhibition in data set [3] (IC50) was put at 6 nM.
With `COc1cc(Nc2ncnc3[nH]nc(OCCN4CCC(O)CC4)c23)ccc1OCc1cccc(F)c1`, the IC50 was found to be 13 nM in data set [1], 613 nM in data set [2] and 3 nM in [3].
The corresponding values for `OC1CCN(CCOc2n[nH]c3ncnc(Nc4ccc(OCc5cccc(F)c5)c(Cl)c4)c23)CC1` are less than 1 nM, 19 nM and less than 1 nM.
Consider `CC(=O)N1CCN(CCOc2n[nH]c3ncnc(Nc4ccc(OCc5ccccn5)c(Cl)c4)c23)CC1`, for which the 50% inhibitory concentration (IC50) is 3 nM in data set [1], 129 nM in data set [2] and less than 1 nM in [3].
For `Clc1cc(Nc2ncnc3[nH]nc(OCCN4CCOCC4)c23)ccc1OCc1ccccn1`, the IC50 in [1] was 1 nM; in [3], less than 1 nM.
On to `OC1CCN(CCOc2n[nH]c3ncnc(Nc4ccc(OCc5ccccn5)c(Cl)c4)c23)CC1`, for which the IC50 in data set [1] was 13 nM; in [2], 135 nM; in data set [3] it was 5 nM.
As to `CNCCOc1n[nH]c2ncnc(Nc3ccc(OCc4ccccn4)c(Cl)c3)c12`, the IC50 in [1] came out at 17 nM; in [2], 1000 nM; in data set [3], 3 nM.
Take `Cc1ccc(Oc2ccc(Nc3ncnc4[nH]nc(OCCN5CCC(O)CC5)c34)cc2F)cn1`: the IC50 is 1430 nM in [1] and 5 nM in data set [3].
As to `OCCOc1n[nH]c2ncnc(Nc3ccc(OCc4ccccn4)c(Cl)c3)c12`, the half-inhibitory concentration (IC50) came out at 16 nM in [1] and 4 nM in data set [3].
As to `CN1CCC(Oc2cccc3ncnc(Nc4ccc(OCc5ccccn5)c(Cl)c4)c23)CC1`, it took 41 nM to reach half-maximal inhibition in data set [7] (IC50).
For the molecule `Cc1cc(Nc2ncnc3[nH]nc(OCCN4CCC(O)CC4)c23)ccc1OCc1ccccn1`, the IC50 was found to be 18 nM in data set [1], 695 nM in [2] and 5 nM in [3].
The corresponding values for `Clc1cc(Nc2ncnc3[nH]nc(OCCCN4CCOCC4)c23)ccc1OCc1ccccn1` are 16 nM, 440 nM and less than 1 nM.
Taken in the same sequence, the figures for `Clc1cc(Nc2ncnc3n[nH]c(OCCN4CCCCCO4)c23)ccc1OCc1ccccn1` were less than 1 nM, 148 nM and less than 1 nM.
With `Cc1cc(Nc2ncnc3[nH]nc(OCCN4CCC(O)CC4)c23)ccc1OCc1cccc(F)c1`, the 50% inhibitory concentration (IC50) in [1] was less than 1 nM; in [2], 107 nM; in data set [3], less than 1 nM.
Regarding `Clc1cc(Nc2ncnc3[nH]nc(OCCN4CCNCC4)c23)ccc1OCc1ccccn1`, the IC50 in data set [1] turned out to be 8 nM; in data set [2], 128 nM; in [3] it was 3 nM.
Turning to `CN1CCN(CCCOc2n[nH]c3ncnc(Nc4ccc(OCc5ccccn5)c(Cl)c4)c23)CC1`, the IC50 in [1] was 14 nM; in data set [3], 4 nM.
On to `COc1cc(Nc2ncnc3[nH]nc(OCCN4CCC(O)CC4)c23)ccc1OCc1ccccn1`, for which the IC50 in data set [2] was determined as 1480 nM; in [3], 17 nM.

(Values after ChEMBL document CHEMBL1143160, “Novel 3-alkoxy-1H-pyrazolo[3,4-d]pyrimidines as EGFR and erbB2 receptor tyrosine kinase inhibitors” (Bioorg Med Chem Lett, 2008).)
